# Measurements reported in US8178506B2, “Oligomeric compounds and compositions for use in modulation of small non-coding RNAs” (Regulus Therapeutics Inc., priority 2003, dated 2012).
# In the oligonucleotide strings, read from the 5' end, every base follows the letter of its sugar. An asterisk marks phosphorothioate; unmarked linkages are phosphodiester. Other units and linkages are bracketed, terminal groups are in braces. A string of capitals states the bases alone. e = 2'-O-(2-methoxyethyl) (MOE); [5mC] = 5-methylcytosine
# Experiments:
# aP2 = aP2 mRNA expression in adipocytes (real-time PCR); assay type: cell-based, human; conditions: differentiating adipocytes transfected with oligomeric compound; for aP2 mRNA: Table 75
# adipocytes = experiment: Triglyceride accumulation assay in adipocytes; assay type: cell-based, human; conditions: differentiating adipocytes transfected with oligomeric compound
# Glut4 = Glut4 mRNA expression in adipocytes (real-time PCR); assay type: cell-based, human; conditions: differentiating adipocytes transfected with oligomeric compound
# HSL = HSL mRNA expression in adipocytes (real-time PCR); assay type: cell-based, human; conditions: differentiating adipocytes transfected with oligomeric compound
# HuVECs = experiment: Endothelial tube formation assay in HuVECs; conditions: for % Activity Relative to UTC (tube formation): 75 nM oligomeric compound
# PPARγ = PPARγ mRNA expression in adipocytes (real-time PCR); assay type: cell-based, human; conditions: differentiating adipocytes transfected with oligomeric compound
Substance,aP2 mRNA (aP2),TG (triglyceride accumulation) (adipocytes; Table 75),GLUT4 mRNA (Glut4; Table 75),HSL mRNA (HSL; Table 75),% Activity Relative to UTC (tube formation) (HuVECs; Table 59),PPAR gamma mRNA (PPARγ; Table 75),% Activity Relative to UTC (tube formation) (HuVECs; Table 56),other results
327968 (antisense e[5mC]*eA*eA*eT*eG*e[5mC]*eA*eA*e[5mC]*eA*eG*e[5mC]*eA*eA*eT*eG*e[5mC]*eA*e[5mC]) [compound 327968],67 percentage of untreated control (UTC),94 percentage of untreated control (UTC),85 percentage of untreated control (UTC),79 percentage of untreated control (UTC),93.3%,79 percentage of untreated control (UTC),–,–
327881 (antisense eA*eA*eA*eA*eG*eA*eG*eA*e[5mC]*e[5mC]*eG*eG*eT*eT*e[5mC]*eA*e[5mC]*eT*eG*eT*eG*eA) [compound 327881],95 percentage of untreated control (UTC),91 percentage of untreated control (UTC),97 percentage of untreated control (UTC),93 percentage of untreated control (UTC),–,98 percentage of untreated control (UTC),50.0%,–
327960 (antisense eG*eT*e[5mC]*eT*eG*eT*e[5mC]*eA*eA*eT*eT*e[5mC]*eA*eT*eA*eG*eG*eT*e[5mC]*eA*eT) [compound 327960],–,–,–,–,53.3%,–,–,AP2 mRNA (aP2): 52 percentage of untreated control (UTC); TG (triglyceride accumulation) (adipocytes): 47 percentage of untreated control (UTC); GLUT4 mRNA (Glut4): 34 percentage of untreated control (UTC); HSL mRNA (HSL): 52 percentage of untreated control (UTC); PPAR gamma mRNA (PPARγ): 76 percentage of untreated control (UTC)
327891 (antisense eG*eG*e[5mC]*e[5mC]*eG*eT*eG*eA*e[5mC]*eT*eG*eG*eA*eG*eA*e[5mC]*eT*eG*eT*eT*eA) [compound 327891],56 percentage of untreated control (UTC),22 percentage of untreated control (UTC),47 percentage of untreated control (UTC),52 percentage of untreated control (UTC),–,50 percentage of untreated control (UTC),50.0%,–
327962 (antisense eG*e[5mC]*eT*eG*eA*eG*eA*eG*eT*eG*eT*eA*eG*eG*eA*eT*eG*eT*eT*eT*eA*e[5mC]*eA) [compound 327962],75 percentage of untreated control (UTC),64 percentage of untreated control (UTC),58 percentage of untreated control (UTC),77 percentage of untreated control (UTC),53.3%,80 percentage of untreated control (UTC),–,–
327943 (antisense eT*eA*eT*e[5mC]*eT*eG*e[5mC]*eA*e[5mC]*eT*eA*eG*eA*eT*eG*e[5mC]*eA*e[5mC]*e[5mC]*eT*eT*eA) [compound 327943],106 percentage of untreated control (UTC),112 percentage of untreated control (UTC),87 percentage of untreated control (UTC),109 percentage of untreated control (UTC),–,98 percentage of untreated control (UTC),–,% Activity Relative to UTC (tube formation) (HuVECs; Table 58): 81.5%
327929 (antisense eG*eA*eA*e[5mC]*eA*eG*eA*eT*eA*eG*eT*e[5mC]*eT*eA*eA*eA*e[5mC]*eA*e[5mC]*eT*eG*eG*eG) [compound 327929],62 percentage of untreated control (UTC),65 percentage of untreated control (UTC),49 percentage of untreated control (UTC),68 percentage of untreated control (UTC),–,71 percentage of untreated control (UTC),–,% Activity Relative to UTC (tube formation) (HuVECs; Table 58): 51.9%
327953 (antisense eA*eG*eA*eA*eT*eT*eG*e[5mC]*eG*eT*eT*eT*eG*eG*eA*e[5mC]*eA*eA*eT*e[5mC]*eA) [compound 327953],–,–,–,–,53.3%,–,–,AP2 mRNA (aP2): 92 percentage of untreated control (UTC); TG (triglyceride accumulation) (adipocytes): 94 percentage of untreated control (UTC); GLUT4 mRNA (Glut4): 112 percentage of untreated control (UTC); HSL mRNA (HSL): 94 percentage of untreated control (UTC); PPAR gamma mRNA (PPARγ): 90 percentage of untreated control (UTC)
327898 (antisense eG*eT*eA*eG*eT*eG*e[5mC]*eT*eT*eT*e[5mC]*eT*eA*e[5mC]*eT*eT*eT*eA*eT*eG) [compound 327898],96 percentage of untreated control (UTC),102 percentage of untreated control (UTC),82 percentage of untreated control (UTC),92 percentage of untreated control (UTC),–,101 percentage of untreated control (UTC),100.0%,–
327948 (antisense eG*e[5mC]*eT*eG*eA*eG*eT*eG*eT*eA*eG*eG*eA*eT*eG*eT*eT*eT*eA*e[5mC]*eA) [compound 327948],–,–,–,–,33.3%,–,–,–
342672 (antisense eA*eT*eA*e[5mC]*e[5mC]*eG*e[5mC]*eG*eA*eT*e[5mC]*eA*eG*eT*eG*e[5mC]*eA*eT*e[5mC]*eT*eT*eT) [compound 342672],–,–,–,–,60.0%,–,46.4%,% Activity Relative to UTC (tube formation) (HuVECs; Table 57): 58.6%; % Activity Relative to UTC (tube formation) (HuVECs; Table 58): 55.6%
327882 (antisense eT*e[5mC]*eA*e[5mC]*eT*eT*eT*eT*eG*eT*eG*eA*e[5mC]*eT*eA*eT*eG*e[5mC]*eA*eA) [compound 327882],–,–,–,–,–,–,107.1%,–
327915 (antisense eA*e[5mC]*eA*eT*eG*eG*eT*eT*eA*eG*eA*eT*e[5mC]*eA*eA*eG*e[5mC]*eA*e[5mC]*eA*eA) [compound 327915],–,–,–,–,–,–,–,% Activity Relative to UTC (tube formation) (HuVECs; Table 57): 69.0%
GCTGAGTGTAGGATGTTTACA (anti-miR; chemistry not fully specified) [ISIS 327948],–,–,–,–,–,–,–,tube formation (HuVECs; 75 nM): suppressed tube formation
327875 (antisense eA*e[5mC]*eA*eA*e[5mC]*e[5mC]*eA*eG*e[5mC]*eT*eA*eA*eG*eA*e[5mC]*eA*e[5mC]*eT*eG*e[5mC]*e[5mC]*eA) [compound 327875],–,–,–,–,–,–,71.4%,–
